{"source": "DBAASP", "test_in_all_cases": "≥ marks a high value that may be exact or a test limit, other limits are often not marked, values filed in µg/mL are converted to µM", "key": {"Escherichia coli UB1005": {"tested_on": "Escherichia coli UB1005"}, "[1]": {"tested_on": "Salmonella enterica subsp. enterica serovar Pullorum C79-13"}, "[2]": {"tested_on": "Escherichia coli ATCC 25922"}, "[3]": {"tested_on": "Salmonella enterica subsp. enterica serovar Typhimurium ATCC 14028"}, "Escherichia coli K88": {"tested_on": "Escherichia coli K88"}, "[4]": {"tested_on": "Pseudomonas aeruginosa ATCC 27853"}, "Escherichia coli K99": {"tested_on": "Escherichia coli K99"}, "[5]": {"tested_on": "Pseudomonas aeruginosa CICC 21630"}, "[6]": {"tested_on": "Salmonella enterica subsp. enterica serovar Typhimurium C77-31"}, "Pseudomonas aeruginosa": {"tested_on": "Pseudomonas aeruginosa"}, "Escherichia coli": {"tested_on": "Escherichia coli"}, "Acinetobacter baumannii": {"tested_on": "Acinetobacter baumannii"}, "Klebsiella pneumoniae": {"tested_on": "Klebsiella pneumoniae"}, "[7]": {"tested_on": "Pseudomonas aeruginosa CICC 21625"}, "[8]": {"tested_on": "Pseudomonas aeruginosa PAO1"}, "[9]": {"tested_on": "Colletotrichum gloeosporioides KCTC 6169"}, "[10]": {"tested_on": "Trichoderma virens KCTC 16924"}, "[11]": {"tested_on": "Candida albicans KCTC 7270"}, "[12]": {"tested_on": "Fusarium graminearum KCTC 16656"}, "[13]": {"tested_on": "Fusarium verticillioides KCTC 6149"}, "[14]": {"tested_on": "Candida parapsilosis CCARM 14016"}, "[15]": {"tested_on": "Candida albicans CCARM 14007"}, "[16]": {"tested_on": "Candida albicans CCARM 14020"}, "[17]": {"tested_on": "Candida albicans CCARM 14004"}, "[18]": {"tested_on": "Fusarium solani KCTC 6326"}, "[19]": {"tested_on": "Trichophyton rubrum KCTC 6345"}, "[20]": {"tested_on": "Candida krusei CCARM 14017"}, "[21]": {"tested_on": "Trichoderma viride KCTC 16992"}, "[22]": {"tested_on": "Candida albicans CCARM 14001"}, "[23]": {"tested_on": "Aspergillus flavus KCTC 6905"}, "[24]": {"tested_on": "Fusarium oxysporum KCTC 16909"}, "[25]": {"tested_on": "Klebsiella pneumoniae ATCC 13883"}, "[26]": {"tested_on": "Escherichia coli BL21(DE3)"}, "[27]": {"tested_on": "Escherichia coli KpC+001812446"}, "[28]": {"tested_on": "Klebsiella pneumoniae KpC+001825971"}, "[29]": {"tested_on": "Staphylococcus aureus ATCC 25923"}, "[30]": {"tested_on": "Candida albicans NCYC 1467"}, "[31]": {"tested_on": "Escherichia coli NCTC 10418"}, "[32]": {"tested_on": "Staphylococcus aureus NCTC 10788"}, "[33]": {"tested_on": "Staphylococcus aureus ATCC 12493"}, "[34]": {"tested_on": "Staphylococcus aureus 209P"}, "Escherichia coli C600": {"tested_on": "Escherichia coli C600"}}, "note": "Values joined by “and” are separate entries in the source; they are usually repeats but may differ in a detail not shown here. Equal values may be shown once."}
{"smiles": "CC(C)C[C@H](NC(=O)[C@@H]1CCCN1C(=O)[C@H](CCCCN)NC(=O)[C@H](CC(C)C)NC(=O)[C@H](CC(C)C)NC(=O)[C@@H]1CCCN1C(=O)[C@H](CCCCN)NC(=O)[C@H](CC(C)C)NC(=O)[C@H](CC(C)C)NC(=O)[C@@H]1CCCN1C(=O)[C@H](CCCCN)NC(=O)[C@H](CC(C)C)NC(=O)[C@H](CC(C)C)NC(=O)[C@@H]1CCCN1C(=O)[C@H](CCCCN)NC(=O)[C@H](CC(C)C)NC(=O)[C@H](CC(C)C)NC(=O)[C@@H]1CCCN1C(=O)[C@H](CCCCN)NC(=O)[C@@H](N)CC(C)C)C(N)=O", "note": "[LKPLLKPLLKPLLKPLLKPL]", "values": [{"measurement": "MIC", "setting": "Escherichia coli UB1005", "result": 2, "unit": "µM"}, {"measurement": "MIC", "setting": "[1]", "result": 4, "unit": "µM"}, {"measurement": "MIC", "setting": "[2]", "result": 2, "unit": "µM"}, {"measurement": "MIC", "setting": "[3]", "result": 8, "unit": "µM"}, {"measurement": "MIC", "setting": "Escherichia coli K88", "result": 2, "unit": "µM"}, {"measurement": "MIC", "setting": "[4]", "result": 16, "unit": "µM"}, {"measurement": "MIC", "setting": "Escherichia coli K99", "result": 2, "unit": "µM"}, {"measurement": "MIC", "setting": "[5]", "result": "≥ 32", "unit": "µM"}, {"measurement": "MIC", "setting": "[6]", "result": 16, "unit": "µM"}, {"measurement": "MIC", "setting": "Pseudomonas aeruginosa", "result": 32, "unit": "µM"}, {"measurement": "MIC", "setting": "Escherichia coli", "result": 4, "unit": "µM"}, {"measurement": "MIC", "setting": "Acinetobacter baumannii", "result": 4, "unit": "µM"}, {"measurement": "MIC", "setting": "Klebsiella pneumoniae", "result": 32, "unit": "µM"}, {"measurement": "MIC", "setting": "[7]", "result": "≥ 64", "unit": "µM"}, {"measurement": "MIC", "setting": "[8]", "result": "> 64", "unit": "µM"}]}
{"smiles": "NCCCC[C@H](NC(=O)[C@H](CCCCN)NC(=O)[C@H](Cc1cnc[nH]1)NC(=O)[C@H](CCCCN)NC(=O)[C@H](CCCCN)NC(=O)[C@H](Cc1cnc[nH]1)NC(=O)[C@H](CCCCN)NC(=O)[C@H](CCCCN)NC(=O)[C@H](Cc1cnc[nH]1)NC(=O)[C@H](CCCCN)NC(=O)[C@H](CCCCN)NC(=O)[C@@H](N)Cc1cnc[nH]1)C(N)=O", "note": "[HKKHKKHKKHKK]", "values": [{"measurement": "MIC", "setting": "[9]", "result": 2, "unit": "µM"}, {"measurement": "MIC", "setting": "[10]", "result": 16, "unit": "µM"}, {"measurement": "MIC", "setting": "[11]", "result": "≥ 32", "unit": "µM"}, {"measurement": "MIC", "setting": "[12]", "result": 16, "unit": "µM"}, {"measurement": "MIC", "setting": "[13]", "result": 4, "unit": "µM"}, {"measurement": "MIC", "setting": "[14]", "result": "≥ 32", "unit": "µM"}, {"measurement": "MIC", "setting": "[15]", "result": "≥ 32", "unit": "µM"}, {"measurement": "MIC", "setting": "[16]", "result": "≥ 32", "unit": "µM"}, {"measurement": "MIC", "setting": "[17]", "result": "≥ 32", "unit": "µM"}, {"measurement": "MIC", "setting": "[18]", "result": 4, "unit": "µM"}, {"measurement": "MIC", "setting": "[19]", "result": 16, "unit": "µM"}, {"measurement": "MIC", "setting": "[20]", "result": 4, "unit": "µM"}, {"measurement": "MIC", "setting": "[21]", "result": 4, "unit": "µM"}, {"measurement": "MIC", "setting": "[22]", "result": "≥ 32", "unit": "µM"}, {"measurement": "MIC", "setting": "[23]", "result": 8, "unit": "µM"}, {"measurement": "MIC", "setting": "[24]", "result": 4, "unit": "µM"}]}
{"smiles": "CC[C@H](C)[C@H](NC(=O)[C@H](CC(C)C)NC(=O)[C@H](CCCN=C(N)N)NC(=O)[C@@H](N)CCCN=C(N)N)C(=O)N[C@@H](CCCN=C(N)N)C(=O)N[C@@H](CC(C)C)C(=O)N[C@@H](Cc1c[nH]c2ccccc12)C(=O)N[C@@H](CC(C)C)C(=O)N[C@@H](CCCN=C(N)N)C(=O)N[C@@H](CC(C)C)C(=O)N[C@@H](CC(C)C)C(=O)N[C@@H](CCCN=C(N)N)C(N)=O", "note": "[RRLIRLWLRLLR]", "values": [{"measurement": "MIC", "setting": "[25]", "result": 4, "unit": "µM"}, {"measurement": "MIC", "setting": "[26]", "result": "8 µM and 4 µM"}]}
{"smiles": "CC[C@H](C)[C@H](NC(=O)[C@H](CCCCN)NC(=O)[C@H](CCCCN)NC(=O)[C@H](CC(C)C)NC(=O)[C@H](CO)NC(=O)CNC(=O)[C@H](CO)NC(=O)CNC(=O)[C@H](CO)NC(=O)CNC(=O)[C@H](CO)NC(=O)CN)C(=O)N[C@@H](Cc1ccccc1)C(=O)N[C@@H](CCCCN)C(=O)N[C@@H](CCCCN)C(=O)N1CCC[C@H]1C(=O)N[C@@H](CCSC)C(=O)N[C@H](C(=O)N[C@H](C(=O)NCC(=O)N[C@H](C(=O)N[C@H](C(=O)N[C@H](C(=O)N1CCC[C@H]1C(=O)N[C@@H](Cc1ccccc1)C(N)=O)[C@@H](C)CC)[C@@H](C)O)C(C)C)[C@@H](C)CC)C(C)C", "note": "[GSGSGSGSLKKIFKKPMVIGVTIPF]", "values": [{"measurement": "MIC", "setting": "[25]", "result": 0.789, "unit": "µM"}, {"measurement": "MIC", "setting": "[27]", "result": 0.789, "unit": "µM"}, {"measurement": "MIC", "setting": "[2]", "result": 0.789, "unit": "µM"}, {"measurement": "MIC", "setting": "[28]", "result": 6.31, "unit": "µM"}, {"measurement": "MIC", "setting": "[29]", "result": 25.2, "unit": "µM"}]}
{"smiles": "NCCCC[C@H](NC(=O)[C@H](CCCCN)NC(=O)[C@@H](N)Cc1cnc[nH]1)C(N)=O", "note": "[HKK]", "values": [{"measurement": "MIC", "setting": "[9]", "result": "≥ 1020", "unit": "µM"}, {"measurement": "MIC", "setting": "[10]", "result": "≥ 512", "unit": "µM"}, {"measurement": "MIC", "setting": "[11]", "result": "≥ 1020", "unit": "µM"}, {"measurement": "MIC", "setting": "[12]", "result": "≥ 512", "unit": "µM"}, {"measurement": "MIC", "setting": "[13]", "result": "≥ 256", "unit": "µM"}, {"measurement": "MIC", "setting": "[14]", "result": "≥ 1020", "unit": "µM"}, {"measurement": "MIC", "setting": "[15]", "result": "≥ 1020", "unit": "µM"}, {"measurement": "MIC", "setting": "[16]", "result": "≥ 1020", "unit": "µM"}, {"measurement": "MIC", "setting": "[17]", "result": "≥ 1020", "unit": "µM"}, {"measurement": "MIC", "setting": "[18]", "result": "≥ 256", "unit": "µM"}, {"measurement": "MIC", "setting": "[19]", "result": "≥ 512", "unit": "µM"}, {"measurement": "MIC", "setting": "[20]", "result": "≥ 512", "unit": "µM"}, {"measurement": "MIC", "setting": "[21]", "result": "≥ 256", "unit": "µM"}, {"measurement": "MIC", "setting": "[22]", "result": "≥ 1020", "unit": "µM"}, {"measurement": "MIC", "setting": "[23]", "result": "≥ 256", "unit": "µM"}, {"measurement": "MIC", "setting": "[24]", "result": "≥ 256", "unit": "µM"}]}
{"smiles": "CC[C@H](C)[C@@H]1NC(=O)[C@H](CO)NC(=O)[C@H](CCCCN)NC(=O)[C@H]([C@@H](C)O)NC(=O)[C@H](Cc2c[nH]c3ccccc23)NC(=O)[C@@H](NC(=O)CNC(=O)[C@H](CCCN=C(N)N)NC(=O)[C@H](CC(C)C)NC(=O)[C@H](C)N)CSSC[C@@H](C(=O)N2CCC[C@H]2C(N)=O)NC(=O)[C@@H]2CCCN2C(=O)[C@H](CCCCN)NC(=O)[C@@H]2CCCN2C(=O)[C@@H]2CCCN2C1=O", "note": "[ALRGCWTKSIPPKPCP]", "values": [{"measurement": "MIC", "setting": "[30]", "result": "≥ 512", "unit": "µM"}, {"measurement": "MIC", "setting": "[31]", "result": "≥ 128", "unit": "µM"}, {"measurement": "MIC", "setting": "[4]", "result": "> 512", "unit": "µM"}, {"measurement": "MIC", "setting": "[32]", "result": "≥ 128", "unit": "µM"}, {"measurement": "MIC", "setting": "[33]", "result": "≥ 512", "unit": "µM"}]}
{"smiles": "CC(C)[C@@H]1NC(=O)[C@H](CCCN=C(N)N)NC(=O)[C@H](Cc2ccccc2)NC(=O)[C@@H](NC(=O)[C@H](Cc2c[nH]c3ccccc23)NC(=O)[C@@H](N)CCCCN)CSSC[C@@H](C(=O)N[C@@H](CCCN=C(N)N)C(=O)O)NC(=O)[C@H](CCCN=C(N)N)NC(=O)[C@H](CCCN=C(N)N)NC(=O)[C@H](Cc2ccc(O)cc2)NC(=O)[C@@H]2CSSC[C@H](NC1=O)C(=O)N[C@@H](Cc1ccc(O)cc1)C(=O)N[C@@H](CCCN=C(N)N)C(=O)NCC(=O)N[C@@H](CCCN=C(N)N)C(=O)N2", "note": "[KWCFRVCYRGRCYRRCR]", "values": [{"measurement": "MIC", "setting": "[34]", "result": 1.56, "unit": "µM"}, {"measurement": "MIC", "setting": "Escherichia coli C600", "result": 1.56, "unit": "µM"}, {"measurement": "MIC", "setting": "[8]", "result": 6.25, "unit": "µM"}]}
